Assay results: patent US20230257393A1, “MACROMOLECULE-SUPPORTED THIENOAZEPINE COMPOUNDS, AND USES THEREOF” (BOLT BIOTHERAPEUTICS, INC., priority 2020, published 2023)

Experiments:
human TLR7 = target: T1, human TLR7 (Homo sapiens, UniProt Q9NYK1); assay: HEK Reporter Assay, HEK293 NFKB reporter cells expressing human TLR7; format: cell-based; conditions: Table 1c, read-out: HEK293 hTLR7 EC50
T1 construct: host or cells: HEK293 reporter cells
T1 sequence (Q9NYK1 27-1049): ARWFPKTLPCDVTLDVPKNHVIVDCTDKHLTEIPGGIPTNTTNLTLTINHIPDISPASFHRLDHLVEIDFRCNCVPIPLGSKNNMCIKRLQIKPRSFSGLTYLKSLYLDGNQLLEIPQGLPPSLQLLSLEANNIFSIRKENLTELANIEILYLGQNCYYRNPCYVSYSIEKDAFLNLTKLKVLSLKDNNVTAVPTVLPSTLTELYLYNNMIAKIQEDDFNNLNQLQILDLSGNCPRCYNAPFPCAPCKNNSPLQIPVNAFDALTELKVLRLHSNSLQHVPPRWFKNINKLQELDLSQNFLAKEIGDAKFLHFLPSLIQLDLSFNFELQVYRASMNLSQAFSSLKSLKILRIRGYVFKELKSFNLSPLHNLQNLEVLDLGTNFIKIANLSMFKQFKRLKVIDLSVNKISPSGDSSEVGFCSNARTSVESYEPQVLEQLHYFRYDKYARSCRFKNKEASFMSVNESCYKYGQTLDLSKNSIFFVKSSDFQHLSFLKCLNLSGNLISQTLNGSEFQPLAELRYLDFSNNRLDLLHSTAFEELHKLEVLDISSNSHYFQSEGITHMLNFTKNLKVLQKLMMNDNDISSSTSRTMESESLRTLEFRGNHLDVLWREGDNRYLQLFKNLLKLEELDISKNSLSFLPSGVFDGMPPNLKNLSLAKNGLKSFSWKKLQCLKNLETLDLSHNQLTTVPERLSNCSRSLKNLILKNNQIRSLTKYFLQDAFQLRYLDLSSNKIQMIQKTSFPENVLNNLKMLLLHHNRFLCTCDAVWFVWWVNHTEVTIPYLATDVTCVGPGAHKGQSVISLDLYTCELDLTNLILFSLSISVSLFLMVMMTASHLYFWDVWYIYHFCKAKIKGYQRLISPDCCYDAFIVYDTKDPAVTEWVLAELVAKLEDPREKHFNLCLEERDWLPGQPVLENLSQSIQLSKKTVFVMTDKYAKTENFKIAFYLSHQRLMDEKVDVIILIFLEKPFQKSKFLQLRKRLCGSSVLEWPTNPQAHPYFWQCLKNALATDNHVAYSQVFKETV
Experimental: (§1) Each compound was synthesized, purified, and characterized by mass spectrometry and shown to have the mass indicated. Additional experimental procedures are found in the Examples. Activity against HEK293 NFKB reporter cells expressing human TLR7 or human TLR8 was measured according to Example 202.
(§2) HEK293 reporter cells expressing human TLR7 or human TLR8 were purchased from Invivogen and vendor protocols were followed for cellular propagation and experimentation. Briefly, cells were grown to 80-85% confluence at 5% CO2 in DMEM supplemented with 10% FBS, Zeocin, and Blasticidin. Cells were then seeded in 96-well flat plates at 4×10^4 cells/well with substrate containing HEK detection medium and immunostimulatory molecules. Activity was measured using a plate reader at 620-655 nm wavelength.

human TLR8 = target: T2, human TLR8 (Homo sapiens, UniProt Q9NR97); assay: HEK Reporter Assay, HEK293 NFKB reporter cells expressing human TLR8; format: cell-based; conditions: Table 1c, read-out: HEK293 hTLR8 EC50
T2 construct: host or cells: HEK293 reporter cells
T2 sequence (Q9NR97 27-1041): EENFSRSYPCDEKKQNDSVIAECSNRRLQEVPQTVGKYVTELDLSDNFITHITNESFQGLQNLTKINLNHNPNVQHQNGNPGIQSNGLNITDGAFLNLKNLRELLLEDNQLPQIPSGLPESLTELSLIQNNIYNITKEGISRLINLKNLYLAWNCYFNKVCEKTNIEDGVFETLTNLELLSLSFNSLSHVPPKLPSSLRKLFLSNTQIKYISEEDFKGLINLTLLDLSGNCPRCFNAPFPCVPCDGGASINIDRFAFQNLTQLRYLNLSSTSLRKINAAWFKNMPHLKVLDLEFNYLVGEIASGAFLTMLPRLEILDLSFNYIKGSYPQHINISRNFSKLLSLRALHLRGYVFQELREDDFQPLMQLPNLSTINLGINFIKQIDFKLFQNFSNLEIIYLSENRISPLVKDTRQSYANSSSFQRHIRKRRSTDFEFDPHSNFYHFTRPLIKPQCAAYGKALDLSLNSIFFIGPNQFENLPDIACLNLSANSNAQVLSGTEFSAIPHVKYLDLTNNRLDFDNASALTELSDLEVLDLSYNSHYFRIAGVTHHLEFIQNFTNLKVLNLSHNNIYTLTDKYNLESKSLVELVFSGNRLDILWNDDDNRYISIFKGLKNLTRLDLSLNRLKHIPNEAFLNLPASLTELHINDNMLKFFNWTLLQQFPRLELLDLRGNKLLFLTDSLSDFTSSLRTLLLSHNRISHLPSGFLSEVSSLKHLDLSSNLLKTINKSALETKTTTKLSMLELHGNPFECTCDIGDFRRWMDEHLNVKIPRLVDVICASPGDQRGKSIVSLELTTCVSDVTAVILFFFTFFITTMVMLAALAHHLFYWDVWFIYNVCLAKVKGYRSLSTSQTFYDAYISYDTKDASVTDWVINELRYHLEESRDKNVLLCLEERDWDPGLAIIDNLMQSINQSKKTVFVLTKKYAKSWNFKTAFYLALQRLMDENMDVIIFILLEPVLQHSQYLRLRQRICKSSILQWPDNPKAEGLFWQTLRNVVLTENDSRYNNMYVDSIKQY
Experimental: as §1, §2

| EC50 (human TLR7) | EC50 (human TLR8) | SMILES |
| --- | --- | --- |
| ≥ 9 µM | ≥ 9 µM | CCCN(OCC)C(=O)C1=Cc2sc(CN3CCN(c4ccc(C(=O)OC(C)(C)C)cc4)CC3)cc2N=C(N)C1 [TAZ-205] |
| ≥ 9 µM | ≥ 9 µM | CCCN(OCC)C(=O)C1=Cc2sc(CN3CC4(CNC4)C3)cc2N=C(N)C1 [TAZ-207] |
| 0.436 µM | 4.43 µM | CCCN(OCC)C(=O)C1=Cc2sc(CN3CCCN(C(=O)OC(C)(C)C)CC3)cc2N=C(N)C1 [TAZ-226] |
| ≥ 9 µM | ≥ 9 µM | CCCN(OCC)C(=O)C1=Cc2sc(CN3CCC(c4ccc(C(=O)OC)cc4)CC3)cc2N=C(N)C1 [TAZ-229] |
| 4.57 µM | 3.05 µM | CCCN(OCC)C(=O)C1=Cc2sc(CN3C[C@H]4C[C@@H]3CN4)cc2N=C(N)C1 [TAZ-235] |
| ≥ 9 µM | ≥ 9 µM | CCONC(=O)C1=Cc2sc(CC3CNC3)cc2N=C(N)C1 [TAZ-250] |
